# Patent US20040002510A1, “Crystalline micronisate, process for the manufacture thereof and use thereof for the preparation of a medicament” (Boehringer Ingelheim Pharma GmbH & Co. KG, priority 2002, published 2004)
# Experiments:
# [1] = Determining particle size by laser diffraction (Fraunhofer diffraction); format: physicochemical; details: air dispersal
# Excerpt: The micronisate of tiotropium bromide obtainable by the above method has a characteristic particle size X50 of between 1.0 μm and 3.5 μm, preferably between 1.1 μm and 3.3 μm, most preferably between 1.2 μm and 3.0 μm and Q(5.8) of more than 60%, preferably more than 70%, most preferably more than 80%. The characteristic value X50 denotes the median value of the particle size below which 50% of the particles fall, with regard to the distribution by volume of the individual particles. The characteristic value Q(5.8) corresponds to the quantity of particles below 5.8 μm , based on the volume distribution of the particles. The particle sizes were determined within the scope of the present invention by laser diffraction (Fraunhofer diffraction). More detailed information on this subject can be found in the experimental descriptions of the invention.
# D.2) Determining Particle Size by Laser Diffraction (Fraunhofer Diffraction)
# To determine the particle size the powder is fed into a laser diffraction spectrometer by means of a dispersing unit.
# [2] = Determining the heat of solution (enthalpy of solution) by solution calorimeter; format: physicochemical; details: chemically pure water, 25° C., mass corrected by water content
# Protocol: D.4) Determining the Heat of Solution (Enthalpy of Solution) Ec:
# The solution enthalpy is determined using a solution calorimeter 2225 Precision Solution Calorimeter made by Messrs. Thermometric. The heat of solution is calculated by means of the change in temperature occurring (as a result of the dissolving process) and the system-related change in temperature calculated from the base line. Before and after the ampoule is broken, electrical calibration is carried out with an integrated heating resistor of a precisely known power. A known heat output is delivered to the system over a set period and the jump in temperature is determined.
# The electrical calibration takes place during the measurement, once before and once after the breakage of the ampoule. The calibration after the breakage of the ampoule is used for the evaluation.
# As the mass of the tiotropium bromide micronisate weighed out has to be corrected by the water content of the material, the unsealed ampoules together with about 1 g of the test substance are left to stand open for at least 4 hours. After this equilibration time the ampoules are sealed with the silicon stoppers and the water content of the bulk sample is determined by Karl-Fischer titration. […]
# The corrected mass mc determined by this calculation is used as the input value (=weight) to calculate the solution enthalpy measured.
smiles,measurement,setting,value
"C[N+]1(C)C2C[C@H](OC(=O)C(O)(c3cccs3)c3cccs3)C[C@H]1[C@H]1OC21 (stereo partly drawn) [tiotropium bromide micronisate, (1α,2β,4β,5α,7β)-7-[(hydroxydi-2-thienylacetyl)oxy]-9,9-dimethyl-3-oxa-9-azoniatricyclo[3.3.1.0^2,4]nonane-bromide]","Q(5.8) (quantity of particles below 5.8 μm, based on the volume distribution)",[1],more than 60%
same,specific enthalpy of solution (heat of solution),[2],more than 65 Ws/g
